The test system of one assay is CD4+ T-cells. Description: Intracellular IFN-γ and TNF-α cytokine staining, CD4+ T-cells. It is filed as cell-based, human. The settings on record: 6 h stimulation, 200 ng/peptide/well. The protocol:
(§1) T-cells were stimulated for 6 h with PRAME PepMix or individual PRAME peptides (200 ng/peptide/well) in the presence of anti-CD28 and CD49d antibodies (RD Biosciences, San Jose, Calif., USA) and Brefeldin A (Golgiplug, BD Biosciences). Controls (unstimulated T-cells, actin, SEE) were included in each experiment. Intracellular IFN-γ (BioLegend, San Diego, Calif.) and TNF-α (Miltenyi Biotec, Bergisch Gladbach, Germany) staining were performed on fixed and permeabilized cells (Cytofix/Cytoperm, BD Biosciences). Data was acquired with a CytoFLEX cytometer (Beckman Coulter, Brea, Calif.), and analyzed using FlowJo Flow Cytometry software (FlowJo LLC, Ashland, Oreg.).
(§2) HLA restriction of these peptides was evaluated with intracellular IFN-γ and TNF-α cytokine staining.

Another assay relates to PRAME-specific T-cells. Description: Epitope mapping by IFN-γ ELISpot (peptide mini-pools and single 15-mer peptides). In kind it is cell-based, human. The settings on record: 10 μg/well. The protocol: (§3) PRAME Peptides. The PRAME peptide library consisting of 125 15-mer peptides overlapping by 11 amino acids and spanning the entire sequence of PRAME protein was designed to identify HLA class 1 and HLA class H-restricted epitopes (A&A Labs, San Diego, Calif.) 23 peptide pools comprising 10-12 peptides were prepared so that each 15-mer peptide was included in only two pools (FIGS. 7A and 7B). To determine minimal PRAME epitopes, additional 9-mer peptides overlapping by 8 amino acids spanning immunogenic 15-mer peptides were obtained from A&A Labs, San Diego, Calif. All peptides were reconstituted at 10 μg/μl in DMSO and stored at −80°C. until further use.
Epitope mapping. T-cell response to pools of peptide libraries and individual PRAME peptides were determined. by IFN-γ ELISpot assay. ELISpot assay was performed as previously described. 1×10^5 T-cells/well were plated alone, with actin (negative control), SEB (positive control), each peptide pool (1μg/well) and individual peptide (10 μg/well). IFN-γ spot-forming cells (SFC) were enumerated by Zellnet Consulting (Fort Lee, N.J.).
Responses that were at least 10 SFC/1×10^5 T-cells or greater than two-fold the background level of nonstimulated T-cells or T-cells stimulated with actin were considered positive responses.
In order to map the class 1-restricted responses, a mapping grid consisting of 23 mini-pools comprising 125 individual 15-mer peptides spanning the entire PRAME protein sequence to identify PRAME epitopes eliciting a response by ex-vivo expanded T-cells was used (FIG. 7A). IFN-γ production by PRAME- sensitized T-cells in response to stimulation with mini-pools was measured by ELISpot assay.
T-cell responses to single 15-mer peptides selected from the grid and their neighboring peptides were determined by IFN-γ ELISpot assay (FIG. 3B).

For assay [1], the system named is CD8+ T-cells. Description: Intracellular IFN-γ and TNF-α cytokine staining, CD8+ T-cells. It is filed as cell-based, human. The following applies: 6 h stimulation, 200 ng/peptide/well. The method, then:
as §1, §2

Assay [2] concerns CD8+ T-cells. Description: Minimal 9-mer epitope determination by IFN-γ ELISpot. The following applies: 9-mers overlapping by 8 amino acids. In kind it is cell-based, human. The protocol:
as §3
(§4) Minimal epitopes recognized by HLA I-restricted cell lines were determined by IFN-γ ELISpot assay. To confirm the restricted HLA allele, anti-human HLA class 1 B35 antigen monoclonal antibody was used in the ELISpot plate (MyBioSource, San Diego, Calif.).
The minimal 9-mer epitopes overlapping by 8 amino acids spanning the 15-mer peptides were determined by IFN-γ ELISpot.

A further assay has as its target T1, HLA-B*35 (Homo sapiens, UniProt P01889, A329T/A93T/A95T/C349S/D201E/D98Y/E176V/E187L/E204Q/E69T/I218V/K202T/L119I/Q94N/R155S/R180L/S121R/S35A/S48A/T118I/V127L/V306I/V36M/Y140F/Y91F).
T1 construct: PRAME-specific T-cells were expanded from PBMCs obtained from twelve healthy donors; endogenous in cells; host or cells: ex vivo expanded PRAME-specific T-cell product from healthy donor PBMCs
Description: IFN-γ ELISpot with anti-HLA-B*35 antibody (HLA restriction). In kind it is cell-based. The settings on record: versus T-cell product alone (FIG. 3G). The protocol:
as §4
To confirm the HLA-B*35 restriction of FPEPEAAQP (SEQ ID NO: 6) further testing was performed using an anti-[…] antibody.

“Also recorded” adds a separate entry of the source.

Consider “ASIYSFPEPEAAQPM (ASLYSFPEPEAAQPM) [compound 36]”, for which the “IFN-γ and TNF-α release by CD4+ T-cells” value with CD4+ T-cells is “no specificity”. Moreover, the “T-cell response to single 15-mer PRAME peptide, IFN-γ ELISpot” value (from here on “T-cell response”) in the assay with PRAME-specific T-cells (T-cell product of FIG. 3B/3C) was “immunogenic”. Besides, the “IFN-γ and TNF-α release by CD8+ T-cells” value with CD8+ T-cells [1] was “released IFN-γ and TNF-α; also recorded: HLA-I-restricted”.
In the case of VEVLVDLFL, in the assay with CD8+ T-cells [2], the “IFN-γ secretion upon stimulation with 9-mer (minimal epitope)” value was “secreted IFN-γ; also recorded: minimal 9-mer peptides”.
For FPEPEAAQP, the “specificity of T-cell product with anti-HLA-B*35 antibody” value with HLA-B*35 is “decreased specificity”; in the assay with HLA-B*35 (listed as FPEPEAAQPM), “confirms HLA restriction”. In the assay on CD8+ T-cells [2], the “IFN-γ secretion upon stimulation with 9-mer (minimal epitope)” value was “secreted IFN-γ; also recorded: minimal 9-mer peptides”.
For RLVELAGQSLLKDEA [compound 7], the “IFN-γ and TNF-α release by CD4+ T-cells” value in the assay on CD4+ T-cells is given as “activated”. Further, the “IFN-γ and TNF-α release by CD8+ T-cells” value with CD8+ T-cells [1] is “activated”.
Regarding EEQYIAQFTSQFLSL [compound 71], the “IFN-γ and TNF-α release by CD4+ T-cells” value in the assay with CD4+ T-cells was “released IFN-γ and TNF-α; also recorded: release of IFN-γ and TNF-α”. Besides, the “T-cell response” value with PRAME-specific T-cells (T-cell product of FIG. 4B/4C) is “recognition”. Besides, the “IFN-γ and TNF-α release by CD8+ T-cells” value with CD8+ T-cells [1] is given as “no specificity”.
As to SFPEPEAAQPMTKKR [compound 37], the “IFN-γ and TNF-α release by CD4+ T-cells” value in the assay on CD4+ T-cells is “no specificity”. Further, the “T-cell response” value with PRAME-specific T-cells (T-cell product of FIG. 3B/3C) is “immunogenic”. Further, in the assay with CD8+ T-cells [1], the “IFN-γ and TNF-α release by CD8+ T-cells” value is “released IFN-γ and TNF-α; also recorded: HLA-I-restricted”.
EQPFIPVEVINDLFL [compound 43]: the “IFN-γ and TNF-α release by CD4+ T-cells” value in the assay with CD4+ T-cells is “no specificity”. In addition, the “T-cell response” value in the assay with PRAME-specific T-cells (T-cell product of FIG. 3B/3C) is given as “immunogenic”. In addition, the “IFN-γ and TNF-α release by CD8+ T-cells” value in the assay with CD8+ T-cells [1] is “released IFN-γ and TNF-α; also recorded: HLA-I-restricted”.
For EKVKRKKNVLRLCCK [compound 50], in the assay with CD4+ T-cells, the “IFN-γ and TNF-α release by CD4+ T-cells” value is “released IFN-γ and TNF-α; also recorded: release of IFN-γ and TNF-α”. For the same sequence, the “T-cell response” value in the assay with PRAME-specific T-cells (T-cell product of FIG. 4B/4C) is reported as “recognition”. The “IFN-γ and TNF-α release by CD8+ T-cells” value in the assay with CD8+ T-cells [1] is listed as “no specificity”.
With IPVEVINDLFLKEGA [compound 44], in the assay with CD4+ T-cells, the “IFN-γ and TNF-α release by CD4+ T-cells” value is on record as “no specificity”. In the assay with PRAME-specific T-cells (T-cell product of FIG. 3B/3C), the “T-cell response” value is on record as “immunogenic”. Moreover, the “IFN-γ and TNF-α release by CD8+ T-cells” value in the assay with CD8+ T-cells [1] was “released IFN-γ and TNF-α; also recorded: HLA-I-restricted”.
With SPEKEEQYIAQFTSQ [compound 70], the “T-cell response” value with PRAME-specific T-cells (T-cell product of FIG. 4B/4C) is “recognition”.
